One compound from EP1306084A1, “Compositions for the control of parasitic infestations in fish” (Alpharma AS, priority 1998, dated 1999) can be followed below.

Series [1] is described as follows: Chemical analysis of muscle/skin after injection of hexaflumuron formulations (Example 8). The conditions noted are these: 50 mg/kg; for concentration at 5232 h: fish, muscle/skin, T8 (218 days after injection). Type of series: in vivo, salmon smolt. As to the method:
Tissue samples (muscle/skin) for chemical analysis were collected from five fish injected with the various hexaflumuron formulations at each sample point in time throughout the trial. […] At sea water transfer, the muscle/skin concentrations in the two other hexaflumuron groups (Apoject 1-Fural, animal oil) varied between 1 and 2.5 µg hexaflumuron/g tissue.

Series [2] in a line: Chemical analysis of muscle/skin tissue after oral treatment (Example 6). Type of series: in vivo, Atlantic salmon (Salmo salar). The conditions noted are these: atlantic salmon, 5.6 mg/kg, five fish, read-out: average concentration of hexaflumuron in muscle/skin tissue. As to the method:
Two days after oral treatment had been completed and at timepoint 3 (65 days after completed medication), muscle/skin tissue from five fish in group 1 was chemically analysed to check the concentration of hexaflumuron. The average concentration of hexaflumuron two days after completed medication was 4.4 µg/g tissue. 65 days after, the average concentration level was 1.2 µg/g tissue.

A short description of series [3]: Field trial: weight and length of recaptured tagged fish (Example 3). Type of series: in vivo, wild sea trout (Salmo trutta). To be noted: treated fish caught June 20 to August 7. As to the method:
(§1) About 2,000 wild sea trout (Salmo trutta) were divided into two groups and marked with Carlin tags in two different colours (yellow or red) so that individuals of the groups could easily be distinguished from each other when observed in the water. The group with yellow Carlin tags were given feed containing hexaflumuron. The dose was about 3 mg of hexaflumuron per fish per day for six days. The feeding was done the last week before they were transferred to the sea in the beginning of May. The control group had red Carlin tags and was fed ordinary fish feed until sea transfer. Both groups of fish were transferred to the sea 200 metres from the river mouth of the Bondhus River in Hordaland in Norway. From sea transfer (May 8) until August 7, neighbouring rivers and estuaries round these rivers were examined every week, using fishing by application of high voltage and net fishing.
The following average lengths and weights were recorded for the fish that were caught during the period: • Control fish: Average weight 50.4 ± 48.8 grams. Average length 19.7 ± 13.3 cm. • Treated fish: Average weight 87.1 ± 69.6 grams. Average length 35.9 ± 19.1 cm.

The test system of series [4] is sea lice. Description: Oral or bath treatment in freshwater before sea transfer, sea lice counts after natural infection (Example 5). To be noted: oral 4 mg per kg daily for 5 days or bath 5 ppm for 30 minutes. Type of series: in vivo, sea trout (Salmo trutta). As to the method: The treatment dosage was 9 mg hexaflumuron per kg fish per day for 10 days. This is indicated by "Groups/Timepoints" in the figure; • Figure 2 relates to the trial in Example 2 that was carried out on Atlantic salmon (Salmo salar). […] The treatment dosage varied between 3 - 9 mg hexaflumuron and 9- 12 mg fluazuron per kg fish per day for 7 days. This is indicated by "Groups/Timepoints" in the diagram. […] The treated groups are compared to an untreated control group. The treatment dosage was 4 mg hexaflumuron per kg fish per day for 5 days. This is indicated by "Groups/Timepoints" in the figure. Cage 2 = controls, Cage 4-6 = treated groups, 16.6.97 = time point for sea transfer and 5.8.97= controls treated by bathing with deltamethrin; • Figure 4 relates to the trial described in Example 5, which was carried out on sea trout (Salmo trutta). […] The treated groups are compared with an untreated control group. The dosage for oral treatment was 4 mg hexaflumuron per kilo fish per day for 5 days, and 5 ppm hexaflumuron as a 30 minute bath treatment. This is indicated by "Groups/Timepoints" in the figure. Cage 1.4 = Controls, cage 1.3 = Oral treatment, cage 1.2 = Bath treatment. […] The treated groups are compared with an untreated control group, and one group that has been treated orally with teflubenzuron (10 mg/kg of teflubenzuron per kg fish per day for 7 days). The dosage for oral treatment was 5.6 mg hexaflumuron per kg fish per day for 7 days, and 5 ppm hexaflumuron as a 30 minute bath treatment. […] End of treatment: 22.10.97, Sea transfer: 23.10.97. T1 = 3 weeks post end of treatment, T2 = 5 weeks post end of treatment, T3 = 9 weeks post end of treatment, T4 = 12 weeks post end of treatment; • Figure 6 relates to the trial in Example 6 at time points 4-6, with the same trial parameters as for Figure 5. […]
About 300 sea trout (Salmo trutta) of an average weight of 160 grams were divided into three groups of 100 fish each. […] Lice from 6-10 fish from each cage were counted every third week to assess whether there was any difference in the number of lice between the cages. […]

Series [5] concerns sea lice. The series is described as follows: Field trial: medicated feed before sea transfer, recapture of tagged fish, sea lice infection (Example 3). The series is classed as in vivo, wild sea trout (Salmo trutta). The conditions noted are these: about 3 mg per fish per day for six days in feed before sea transfer; 13 treated fish caught June 20 to August 7. As to the method:
as §1
Tagged fish was not caught until June 20. From June 20 to August 7, 22 control fish and 13 treated fish were caught. The untreated fish were caught in the lower parts of the rivers and were heavily infected with sea lice. The 13 treated fish were exclusively caught in the estuary around the rivers (in sea water), none were caught in freshwater.

As for `O=C(NC(=O)c1c(F)cccc1F)Nc1cc(Cl)c(OC(F)(F)C(F)F)c(Cl)c1` [hexaflumuron], in series [1] (T3, injected in an aqueous suspension (PBS)), the “hexaflumuron concentrations in muscle/skin” value is on record as “below 0.02 µg per g”. Further, the concentration at 5232 h stood at 260 ng/g in series [1] (Apoject 1-Fural group) and 270 ng/g in series [1] (animal oil group). In series [2] (65 days after completed oral medication), the concentration at 1560 h was 1200 ng/g. Also, the concentration at 48 h in series [2] (two days after completed oral medication (5.6 mg per kg, 7 days)) is 4400 ng/g. This compound registered an Average length in series [3] (control fish 19.7 ± 13.3) of 35.9 ± 19.1 cm. In series [3] (control fish 50.4 ± 48.8), the Average weight is 87.1 ± 69.6 grams. The “protection after transfer to sea” value in series [4] is given as “at least 8 weeks”. In series [4] (2, 5 and 8 weeks after sea transfer), the “number of lice larger than Chalimus II versus control” value is “significantly lower”. In addition, in series [5], the “signs of sea lice infections in recaptured fish” value is listed as “None of the treated fish showed signs of sea lice infections”.
